The values that follow come from patent US20070112057A1, “Polymorphic forms of tegaserod maleate” (priority 2005, published 2007).

Data set [1] is described as follows: Water absorption (hygroscopicity) test under 80% relative humidity. In kind it is physicochemical. Conditions: room temperature, 37 days.
Data set [2] is described as follows: Weight loss measured by TGA. Format: physicochemical. Conditions: range of about 25° C. to about 200° C. As to the method:
Form Z has a weight loss of about 0.1% by weight at the range of about 25° C. to about 200° C., as measured by TGA.

The conditions of data set [3]: cited from earlier work.

Take `CCCCCNC(=N)N/N=C/c1c[nH]c2ccc(OC)cc12.O=C(O)/C=C\C(=O)O` [Form Z, tegaserod maleate]: the “hygroscopicity (water absorption)” value in data set [1] was “non hygroscopic”. The “weight loss as measured by TGA” value in data set [2] is on record as “about 0.1 % by weight”.

Regarding `CCCCCNC(=N)N/N=C/c1c[nH]c2ccc(OC)cc12.O=C(O)/C=C\C(=O)O` [Tegaserod maleate, 3-(5-methoxy-1H-indole-3-ylmethylene)-N-pentylcarbazimidamide hydrogen maleate], in data set [3] (ethanol), the solubility in ethanol result was “slightly soluble”. In data set [3] (water), the solubility in water entry is given as “very slightly soluble”.
